Consider two molecules from patent publication US4985441A, “Anti-tumor agents” (Imperial Chemical Industries plc, priority 1988, dated 1991).

For one series, the system named is liver and kidney. The settings on record: clinical; literature references; cited from earlier work.
Series [1] has as its system human breast, ovarian and liver cancer. The following applies: clinical; literature references; cited from earlier work.
The next series deals with T1, thymidylate synthetase (Mus musculus, UniProt P07607).
T1 construct: obtained in partially purified form from L1210 mouse leukaemia cells; endogenous in cells; host or cells: L1210 mouse leukaemia cells (enzyme partially purified)
T1 sequence (P07607 whole entry): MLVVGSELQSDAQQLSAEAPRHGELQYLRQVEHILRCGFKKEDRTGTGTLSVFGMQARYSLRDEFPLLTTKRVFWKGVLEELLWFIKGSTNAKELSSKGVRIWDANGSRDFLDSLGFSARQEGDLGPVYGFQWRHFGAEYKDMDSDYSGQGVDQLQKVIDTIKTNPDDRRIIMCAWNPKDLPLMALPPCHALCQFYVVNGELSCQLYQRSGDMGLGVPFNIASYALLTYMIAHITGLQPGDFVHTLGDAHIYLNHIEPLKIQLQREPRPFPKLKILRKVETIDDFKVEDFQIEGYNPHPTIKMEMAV
Briefly: Test (a): in vitro inhibition of thymidylate synthetase (partially purified from L1210 mouse leukaemia cells). The following applies: enzyme partially purified from L1210 mouse leukaemia cells; read-out: IC50 against thymidylate synthetase [Test (a)]. The class given is biochemical. From the text:
(a) An in vitro assay which determines the ability of a test compound to inhibit the enzyme thymidylate synthetase. Thymidylate synthetase may be obtained in partially purified form from L1210 mouse leukaemia cells and utilised using the procedures described by Jackman et al. (Cancer Res., 1986, 46, 2810);

For another series, the system named is L1210 cell line. Briefly: Test (b): inhibition of growth of the leukaemia cell line L1210 in cell culture. The class given is cell-based. The settings on record: Mus musculus, read-out: IC50 against the L1210 cell line [Test (b)]. From the text:
Compounds of the CB3717 type are believed to act as anti-tumour agents by inhibiting the enzyme thymidylate synthetase. The anti-tumour activity of CB3717 may be assessed in vitro by determining its inhibitory effect on that enzyme, and in cell cultures by its inhibitory effect on cancer cell lines such as the mouse leukaemia cell lines L1210 and L5178Y TK-/- and the breast cancer cell line MCF-7.
(b) An assay which determines the ability of a test compound to inhibit the growth of the leukaemia cell line L1210 in cell culture. The test is similar to that described in UK Patent Specification No. 2065653B;

On to `C#CCN(Cc1ccc2nc(N)[nH]c(=O)c2c1)c1ccc(C(=O)N[C@@H](CCC(=O)O)C(=O)O)cc1` [CB3717], for which the toxicity in humans result in the series with liver and kidney was “symptoms of toxicity in humans, particularly in relation to the liver and kidney”. Also, the “activity against human breast, ovarian and liver cancer” value in series [1] was “promising activity against human breast, ovarian and liver cancer”.
`C#CCN(Cc1ccc2nc(C)nc(O)c2c1)c1ccc(C(=O)NCCC)cc1` [p-[N-(3,4-dihydro-2-methyl-4-oxoquinazolin-6-ylmethyl)-N-(prop-2-ynyl)amino]-N-propylbenzamide]: the IC50 on thymidylate synthetase turned out to be 1.8 µM; with L1210 cell line, 7 µM.

By IC50 is commonly meant the point on the concentration scale where inhibition reaches its midpoint.
